Ends that are not written are not given here.
Test system: COVID19 anti-S1 IgG
Test: UV-vis aggregation test of peptide-coated nanoparticles (Examples 1, 6, 7, 8)
Assay type: binding
Details: silver nanoparticles (AgNP, 10 nm), streptavidin-biotin

Q: For “S14P5-Ag: S14P5 epitope conjugated onto silver nanoparticles (AgNP, 10 nm) through the streptavidin-biotin approach (TESNKKFLPFQQFGRDIA; also: conjugated to silver nanoparticles via streptavidin-biotin)”, which “response upon introduction of COV19 anti-S1 IgGs” value is on record?
A: Its value is “visible nanoparticle precipitation”.

Source: US20240369551A1 (priority 2021, published 2024)
